Laboratory results: publication PMC12136037, “Type II kinase inhibitors that target Parkinson’s disease–associated LRRK2” (Science Advances, 2025)

Experiments:
Assay in all cases: DSF 100 kinase selectivity screen;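 also: compound tested at 20 µM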
Assay type in all cases: binding
[1] = molecular target: T1, ~100 representative kinases (Homo sapiens, UniProt Q09013); conditions: Protein DMPK1; average of three replicates
T1 construct: Recombinant protein kinase domains with a concentration of 2 μM
T1 sequence (Q09013 1-629): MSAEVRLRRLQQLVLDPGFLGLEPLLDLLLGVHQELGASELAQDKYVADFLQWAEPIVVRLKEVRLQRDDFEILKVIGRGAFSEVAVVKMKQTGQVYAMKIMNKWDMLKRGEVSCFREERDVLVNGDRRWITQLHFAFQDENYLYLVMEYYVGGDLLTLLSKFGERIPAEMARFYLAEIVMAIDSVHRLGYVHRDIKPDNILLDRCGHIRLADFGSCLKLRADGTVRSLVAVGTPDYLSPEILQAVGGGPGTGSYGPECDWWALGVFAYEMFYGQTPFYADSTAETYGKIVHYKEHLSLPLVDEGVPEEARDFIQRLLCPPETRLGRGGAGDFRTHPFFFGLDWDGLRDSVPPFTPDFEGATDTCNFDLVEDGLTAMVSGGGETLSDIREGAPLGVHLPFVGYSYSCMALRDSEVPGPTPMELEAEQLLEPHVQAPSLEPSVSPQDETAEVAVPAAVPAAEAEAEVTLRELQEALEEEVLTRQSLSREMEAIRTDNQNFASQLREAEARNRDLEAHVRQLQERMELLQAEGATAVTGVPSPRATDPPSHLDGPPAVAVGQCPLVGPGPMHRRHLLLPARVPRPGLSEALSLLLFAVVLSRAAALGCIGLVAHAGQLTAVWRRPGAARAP
Summary of the method: (§1)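 Each kinase domain, at 2 μM, is mixed with 20 μM test compound and SYPRO Orange in Hepes (20 mM, pH 7.5) with 500 mM NaCl. Temperature is then raised at 3°C/min and fluorescence-monitored unfolding yields the melting temperature change, ΔTm in degrees Celsius.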

[2] = molecular target: T2, ~100 representative kinases (Homo sapiens, UniProt Q9P289); conditions: protein MST4; average of three replicates
T2 construct: Recombinant protein kinase domains with a concentration of 2 μM
Summary of the method: as §1

[3] = molecular target: T3, ~100 representative kinases (Homo sapiens, UniProt P24941); conditions: Protein CDK2; average of three replicates
T3 construct: Recombinant protein kinase domains with a concentration of 2 μM
Summary of the method: as §1

[4] = molecular target: T4, ~100 representative kinases (Homo sapiens, UniProt Q96PY6); conditions: protein NEK1; average of three replicates
T4 construct: Recombinant protein kinase domains with a concentration of 2 μM
T4 sequence (Q96PY6 1-1258): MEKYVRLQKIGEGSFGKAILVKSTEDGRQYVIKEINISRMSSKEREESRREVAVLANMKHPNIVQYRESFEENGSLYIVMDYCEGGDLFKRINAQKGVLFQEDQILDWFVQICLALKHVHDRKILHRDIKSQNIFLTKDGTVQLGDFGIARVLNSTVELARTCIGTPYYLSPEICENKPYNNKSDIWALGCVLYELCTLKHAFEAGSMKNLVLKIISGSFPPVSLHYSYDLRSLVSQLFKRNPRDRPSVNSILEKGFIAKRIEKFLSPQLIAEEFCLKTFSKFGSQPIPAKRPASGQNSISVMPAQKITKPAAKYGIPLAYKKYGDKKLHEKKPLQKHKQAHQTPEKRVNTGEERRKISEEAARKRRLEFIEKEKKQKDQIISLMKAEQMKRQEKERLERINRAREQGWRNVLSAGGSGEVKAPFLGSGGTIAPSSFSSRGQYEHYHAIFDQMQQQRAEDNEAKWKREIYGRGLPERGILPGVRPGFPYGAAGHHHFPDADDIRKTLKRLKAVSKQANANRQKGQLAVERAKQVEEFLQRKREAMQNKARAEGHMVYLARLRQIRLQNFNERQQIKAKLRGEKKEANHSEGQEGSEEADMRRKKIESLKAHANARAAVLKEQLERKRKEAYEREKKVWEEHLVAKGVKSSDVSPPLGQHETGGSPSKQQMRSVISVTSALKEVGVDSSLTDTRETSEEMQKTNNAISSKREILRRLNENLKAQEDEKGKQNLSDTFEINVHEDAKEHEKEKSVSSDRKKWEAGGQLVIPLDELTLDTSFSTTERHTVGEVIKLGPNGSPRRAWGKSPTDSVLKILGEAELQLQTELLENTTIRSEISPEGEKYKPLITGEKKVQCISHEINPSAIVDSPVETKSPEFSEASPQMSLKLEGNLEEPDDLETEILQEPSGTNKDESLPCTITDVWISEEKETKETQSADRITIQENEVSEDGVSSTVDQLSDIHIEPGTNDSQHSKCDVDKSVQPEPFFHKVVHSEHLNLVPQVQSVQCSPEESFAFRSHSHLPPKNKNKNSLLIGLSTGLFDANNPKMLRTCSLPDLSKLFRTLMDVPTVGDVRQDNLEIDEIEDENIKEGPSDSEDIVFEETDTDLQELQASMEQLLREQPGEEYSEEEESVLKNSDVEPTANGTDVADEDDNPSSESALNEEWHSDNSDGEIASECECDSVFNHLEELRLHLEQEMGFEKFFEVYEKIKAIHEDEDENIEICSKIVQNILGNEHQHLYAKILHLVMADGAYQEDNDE
Summary of the method: as §1

[5] = molecular target: T5, ~100 representative kinases (Homo sapiens, UniProt P52564); conditions: protein MAP2K6; average of three replicates
T5 construct: Recombinant protein kinase domains with a concentration of 2 μM
T5 sequence (P52564 1-334): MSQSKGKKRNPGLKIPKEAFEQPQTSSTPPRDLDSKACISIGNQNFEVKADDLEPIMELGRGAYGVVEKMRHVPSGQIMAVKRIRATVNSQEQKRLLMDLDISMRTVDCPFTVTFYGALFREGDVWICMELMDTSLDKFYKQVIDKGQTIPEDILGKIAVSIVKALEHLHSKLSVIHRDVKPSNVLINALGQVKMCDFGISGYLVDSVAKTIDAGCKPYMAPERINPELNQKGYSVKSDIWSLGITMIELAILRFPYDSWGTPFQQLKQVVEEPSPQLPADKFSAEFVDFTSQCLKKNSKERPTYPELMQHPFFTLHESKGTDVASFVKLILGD
Summary of the method: as §1

T2 sequence (Q9P289 whole entry, the tested form may be a part): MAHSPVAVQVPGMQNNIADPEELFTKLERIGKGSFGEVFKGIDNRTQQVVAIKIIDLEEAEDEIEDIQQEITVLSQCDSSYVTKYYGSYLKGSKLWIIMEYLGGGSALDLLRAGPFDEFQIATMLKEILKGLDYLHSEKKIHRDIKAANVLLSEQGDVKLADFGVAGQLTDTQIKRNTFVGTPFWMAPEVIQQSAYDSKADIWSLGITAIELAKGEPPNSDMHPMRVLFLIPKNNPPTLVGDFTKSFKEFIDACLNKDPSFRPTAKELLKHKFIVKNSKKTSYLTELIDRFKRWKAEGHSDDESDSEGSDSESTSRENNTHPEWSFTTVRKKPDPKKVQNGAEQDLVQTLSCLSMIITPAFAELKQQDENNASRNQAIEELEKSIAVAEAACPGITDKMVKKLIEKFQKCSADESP

Row | Compound | dTm [1] | dTm [2] | dTm [3] | dTm [4] | dTm [5]
1 | Cc1ccc(C(=O)Nc2ccc(CN3CCN(C)CC3)c(C(F)(F)F)c2)cc1C#Cc1c[nH]c2ncnc(N3CCOCC3)c12 [Compound 1] | 0.98 K | 4.54 K | 3.53 K | -0.11 K | 3.80 K
2 | Cc1cc(NC(=O)C2(C(=O)Nc3ccc(F)cc3)CC2)cc(-c2c[nH]c3ncnc(N4CCOCC4)c23)c1 [Compound 6] | 1.12 K | 3.15 K | 2.92 K | -0.00237 K | 1.56 K
3 | O=C(Nc1cccc(-c2c[nH]c3ncnc(N4CCOCC4)c23)c1)C1(C(=O)Nc2cccc3c2CCC3)CC1 [Compound 11] | -0.08 K | 0.22 K | 4.66 K | -2.39 K | 2.82 K
4 | CCc1ccc(NC(=O)C2(C(=O)Nc3cccc(-c4c[nH]c5ncnc(N6CCOCC6)c45)c3)CC2)cc1 [Compound 15] | -1.02 K | 2.78 K | 9.83 K | 0.19 K | 2.06 K
5 | COc1ccc(NC(=O)C2(C(=O)Nc3cccc(-c4c[nH]c5ncnc(N6CCOCC6)c45)c3)CC2)cc1 [Compound 16] | -0.98 K | 1.30 K | 5.86 K | 0.34 K | 0.82 K
6 | O=C(Nc1cccc(-c2c[nH]c3ncnc(N4CCOCC4)c23)c1)C1(C(=O)Nc2ccc(F)c(F)c2)CC1 [Compound 17] | -0.94 K | 6.01 K | 5.91 K | 0.29 K | 2.36 K
7 | O=C(Nc1cccc(-c2c[nH]c3ncnc(N4CCOCC4)c23)c1)C1(C(=O)Nc2ccc(F)c(Cl)c2)CC1 [Compound 18] | -0.69 K | 6.98 K | 6.75 K | -0.32 K | 2.96 K
8 | COc1cc(NC(=O)C2(C(=O)Nc3cccc(-c4c[nH]c5ncnc(N6CCOCC6)c45)c3)CC2)ccc1F [Compound 21] | -1.06 K | 6.10 K | 4.67 K | -0.0539 K | 3.07 K
9 | CC(C)(C)c1cccc(NC(=O)C2(C(=O)Nc3cccc(-c4c[nH]c5ncnc(N6CCOCC6)c45)c3)CC2)c1 [Compound 22] | -0.60 K | 4.41 K | 5.91 K | -1.56 K | 1.77 K
10 | O=C(Nc1cccc(-c2c[nH]c3ncnc(N4CCOCC4)c23)c1)C1(C(=O)Nc2cc(Br)c(F)cc2F)CC1 [Compound 25] | 0.24 K | 1.80 K | 3.68 K | -6.30 K | 3.34 K
11 | O=C(Nc1cccc(-c2c[nH]c3ncnc(N4CCOCC4)c23)c1)C1(C(=O)Nc2ccc(F)c(Br)c2F)CC1 [Compound 26] | -0.0242 K | 1.39 K | 3.97 K | -0.27 K | 2.03 K
12 | O=C(Nc1cc(F)cc(Br)c1)C1(C(=O)Nc2cccc(-c3c[nH]c4ncnc(N5CCOCC5)c34)c2)CC1 [Compound 27] | -0.12 K | 3.14 K | 4.12 K | -1.82 K | 2.66 K
13 | Cc1ccc(C(=O)Nc2ccc(CN3CCN(C)CC3)c(C(F)(F)F)c2)cc1C#Cc1cnc2cccnn12 [Ponatinib, reference compound] | – | – | 4.72 K | 0.42 K | –
14 | CN[C@@H]1C[C@H]2O[C@@](C)([C@@H]1OC)n1c3ccccc3c3c4c(c5c6ccccc6n2c5c31)C(=O)NC4 [Staurosporine] | – | – | – | – | 12.80 K

Other lines, results leading:

Row | dTm [1] | dTm [2] | dTm [3] | dTm [4] | dTm [5] | Compound
15 | -0.63 K | 5.41 K | 4.78 K | -0.21 K | 2.20 K | O=C(Nc1ccc(F)cc1)C1(C(=O)Nc2cccc(-c3c[nH]c4ncnc(N5CCOCC5)c34)c2)CC1 [Compound 2]
16 | -0.68 K | 1.45 K | 7.66 K | -0.47 K | 2.38 K | O=C(Nc1cccc(-c2c[nH]c3ncnc(N4CCOCC4)c23)c1)c1cccn(-c2ccc(F)cc2)c1=O [Compound 4]
17 | -0.21 K | 3.77 K | 3.53 K | 0.33 K | 2.08 K | O=C(Nc1ccccc1)C1(C(=O)Nc2cccc(-c3c[nH]c4ncnc(N5CCOCC5)c34)c2)CC1 [Compound 12]
18 | -0.32 K | 5.13 K | 8.33 K | 0.54 K | 2.65 K | O=C(Nc1ccc(Cl)cc1)C1(C(=O)Nc2cccc(-c3c[nH]c4ncnc(N5CCOCC5)c34)c2)CC1 [Compound 13]
19 | -0.76 K | 3.59 K | 7.03 K | 0.23 K | 1.56 K | Cc1ccc(NC(=O)C2(C(=O)Nc3cccc(-c4c[nH]c5ncnc(N6CCOCC6)c45)c3)CC2)cc1 [Compound 14]
20 | -0.17 K | 6.31 K | 7.42 K | -0.89 K | 3.38 K | O=C(Nc1cccc(-c2c[nH]c3ncnc(N4CCOCC4)c23)c1)C1(C(=O)Nc2ccc(F)c(Br)c2)CC1 [Compound 19]
21 | -1.17 K | 7.93 K | 8.50 K | -0.05 K | 3.64 K | Cc1cc(NC(=O)C2(C(=O)Nc3cccc(-c4c[nH]c5ncnc(N6CCOCC6)c45)c3)CC2)ccc1F [Compound 20]
22 | -0.57 K | 3.92 K | 3.56 K | -0.14 K | 1.78 K | O=C(Nc1cccc(-c2c[nH]c3ncnc(N4CCOCC4)c23)c1)C1(C(=O)Nc2ccc(F)cc2F)CC1 [Compound 23]
23 | -1.04 K | 2.44 K | 3.87 K | -0.14 K | 3.14 K | Cc1cc(F)ccc1NC(=O)C1(C(=O)Nc2cccc(-c3c[nH]c4ncnc(N5CCOCC5)c34)c2)CC1 [Compound 24]
